Structures are written as SMILES. Structures can show the parent of a compound that is named as a salt. Where two headings read alike, the source gives them in different places.

For assay [1] the following is noted: Bielenberg et al., Stroke Supplement IV, 21 (1990); cited from earlier work.
For assay [2] the following is noted: Eur. J. Pharmacol. 144, 223 (1987); 158, 53 (1988); cited from earlier work.
For assay [3] the following is noted: Eide, Neuropharm. 31, 541 (1992); cited from earlier work.
For assay [4] the following is noted: Eur. J. Pharmacol. 180, 339 (1990); 182, 63 (1990); cited from earlier work.
The next assay deals with T1, 5HT1D receptor (Bos taurus, UniProt F1MGM3).
T1 construct: from tissue
As to the kind of experiment: 5HT1D receptor binding affinity (procedure of Peroutka et al.).

A short description of assay [5]: acetic acid writhing test (analgesic effect). The format is in vivo. The settings on record: Mus musculus, sc, 0.5 h; mice, subcutaneous, 30 minutes before acetic acid i.p. (0.25% v/v, 0.4 ml). The procedure: Eide, Neuropharm. 31, 541 (1992). […] One such model is the acetic acid writhing test. In this test, a group containing from 5-10 mice are administered the test compound subcutaneously. Thirty minutes after administration of the test compound, the mice are administered acetic acid intraperitoneally (0.25 % v/v, 0.4 ml). The mice are then observed for squirming and writhing. Analgesics block this squirming and writhing.
A general note: In writhing tests, fewer writhes than in controls are read as antinociception.

For the next assay, the target named is T2, 5HT1A receptor (Rattus norvegicus, UniProt P19327).
T2 sequence (P19327 1-422): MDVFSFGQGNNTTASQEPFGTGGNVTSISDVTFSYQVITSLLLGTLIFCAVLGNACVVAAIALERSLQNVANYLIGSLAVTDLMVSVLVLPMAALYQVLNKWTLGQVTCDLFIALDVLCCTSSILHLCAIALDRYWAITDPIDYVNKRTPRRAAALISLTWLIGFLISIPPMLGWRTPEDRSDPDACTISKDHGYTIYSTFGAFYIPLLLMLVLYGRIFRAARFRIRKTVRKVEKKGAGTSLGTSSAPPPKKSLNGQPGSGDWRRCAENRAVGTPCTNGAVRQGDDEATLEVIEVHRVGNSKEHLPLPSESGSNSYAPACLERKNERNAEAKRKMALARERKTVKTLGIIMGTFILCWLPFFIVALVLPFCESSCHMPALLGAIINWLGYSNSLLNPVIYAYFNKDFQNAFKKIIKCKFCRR
Description: 5HT1A receptor binding affinity (procedure of Gozlan et al.). The procedure: In the following examples, the compounds binding affinity for both the 5HT1A receptor and 5HT1D receptors is reported. The compounds affinity for the 5HT1D site was determined by the binding procedure of Peroutka et al as reported in European Journal of Pharmacology, Vol. 163 at pages 133-166 (1989). The compounds affinity for the 5HT1A receptor was determined by the procedure of Gozlan et al., as reported in Nature, Volume 305, at pages 140-142 (1983). Where multiple determinations of the binding affinity have been performed, the average is given followed by the number of determinations in parentheses. Also, the PA2 value for the saphenous vein preparation as described in this application is given, followed by the intrinsic (agonist) activity in parentheses, expressed as a percentage. [drawing 10] […]

For the next assay, the target named is 5-HT1D receptors (Canis lupus familiaris, UniProt P79250). Set-up: species or system dog (canine). As to the method:
In the following examples, the compounds binding affinity for both the 5HT1A receptor and 5HT1D receptors is reported. The compounds affinity for the 5HT1D site was determined by the binding procedure of Peroutka et al as reported in European Journal of Pharmacology, Vol. 163 at pages 133-166 (1989). The compounds affinity for the 5HT1A receptor was determined by the procedure of Gozlan et al., as reported in Nature, Volume 305, at pages 140-142 (1983). Where multiple determinations of the binding affinity have been performed, the average is given followed by the number of determinations in parentheses. Also, the PA2 value for the saphenous vein preparation as described in this application is given, followed by the intrinsic (agonist) activity in parentheses, expressed as a percentage. [drawing 10]
We have used canine saphenous vein for studying 5-HT1D receptors which is similar, although not totally identical, to human coronary 5-HT1D receptors (see Humphrey, P. P. A., Feniuk, W., Perren, M. J., Connor, H. E., Oxford, A. W., Coates, I. H. and Butina, D.: GR43175, a selective agonist for the 5-HT1 -like receptor in dog isolated saphenous vein, Br. J. Pharmacol. 94:1123-1132, 1988; Kaumann, A. J.: Human heart 5-HT receptors, Second international symposium on serotonin, from cell biology to pharmacology and therapeutics, Houston, Sep. 15-18, 1992).
Mongrel dogs weighing 12-18 kg were killed by an intravenous injection of an overdose of sodium pentobarbitol. Saphenous veins were isolated, removed, cleaned of surrounding connective tissue, and cut into helical strips in a dish containing Krebs-Henseleit solution with the following composition in mM: NaCl, 110.0; KCl, 4.8; CaCl2, 2.5; KH2 PO4, 1.2; EDTA(NaEDTA), 0.027; and was constantly bubbled with 95% O2 -5% CO2. Unless otherwise specified, the endothelium of the […] was removed by rubbing with a metal rod. The intactness or absence of functional endothelium was checked by the presence or absence of a relaxant effect of acetycholine (10^-5 M) in phenylephrine-contracted tissues (see Furchgott, R. F. and Zawadzki, J. V.: The obligatory role of endothelial cells in the relaxtion of arterial smooth muscle by acetycholine, Nature 288:373-376, 1980). Each muscle strip (3×30 mm) was set up in a tissue bath at 37° C. and loaded with 2 gram tension. Contractility of the tissues was measured isometrically with a Grass FT03 force-displacement transducer and recorded on a Strip chart recorder. The tissues were allowed to stabilize for 2 hours before the experiment was started, during which time they were washed repeatedly. Tissues were contracted with 3.162×10^-6 M phenylephrine and 40 mM KCl, which produced 60-70% of their maximum contractile responses, to condition the tissue. 5-HT dose response experiment was conducted. Test compounds were then incubated with the tissue before a second 5-HT dose response experiment was performed. Data are expressed as the pA2 value, the negative logarithm of the molar concentration of antagonist which produced a 2 fold shift in ED50 values of 5-HT dose response curves (see Van Rossum, J. M.: Cumulative dose-response curve: Technique for the making of dose-response curves in isolated organs and the evaluation of drug parameters, Arch. Int. Pharmacodyn. Ther. 143:299-330, 1963).

Assay [6] in a line: fear-potentiated startle test (anxiolytic activity). The format is in vivo. The conditions noted are these: rats. The source says: Animals were trained and tested for tear-potentiated startle in a modification of the methods reported in Hitchcock and Davis (1991). Briefly, rats first were given a matching session consisting of 30 startle stimuli. […] A training session took place one to two days later in which the rats were given 10 paired trials consisting of a visual conditioned stimulus (a light) immediately followed by an unconditioned stimulus (footshock). The test session took place two days later. The product of Example No. 15 was administered s.c. in the flank and fifteen minutes later, the rats were given startle stimuli in the absence of the conditioned stimulus (baseline startle measurement; Noise-Alone trials) or in the presence of the conditioned stimulus (fear-potentiated startle measurement; Light-Noise trials). Fear-potentiated startle was defined as higher startle in the presence of the conditioned fear stimulus than in its absence.
Statistical analysis was done on the mean startle amplitudes on the Noise-Alone and Light-Noise trials, and the mean Difference scores (Light-Noise minus Noise-Alone means). One-way analysis of variance was run on the Difference scores and on the Noise-Alone scores. Multiple comparison test (Fisher PLSD) were used to compare each dose group to the vehicle control group.

Assay [7] deals with dorsal raphe nucleus neurons. The settings on record: Vandermaelen et al.; cited from earlier work.
The conditions of assay [8]: early clinical trials; cited from earlier work.
The conditions of assay [9]: Peroutka et al.; Saxena et al.; Hamel et al.; cited from earlier work.

T1 sequence (F1MGM3 1-403): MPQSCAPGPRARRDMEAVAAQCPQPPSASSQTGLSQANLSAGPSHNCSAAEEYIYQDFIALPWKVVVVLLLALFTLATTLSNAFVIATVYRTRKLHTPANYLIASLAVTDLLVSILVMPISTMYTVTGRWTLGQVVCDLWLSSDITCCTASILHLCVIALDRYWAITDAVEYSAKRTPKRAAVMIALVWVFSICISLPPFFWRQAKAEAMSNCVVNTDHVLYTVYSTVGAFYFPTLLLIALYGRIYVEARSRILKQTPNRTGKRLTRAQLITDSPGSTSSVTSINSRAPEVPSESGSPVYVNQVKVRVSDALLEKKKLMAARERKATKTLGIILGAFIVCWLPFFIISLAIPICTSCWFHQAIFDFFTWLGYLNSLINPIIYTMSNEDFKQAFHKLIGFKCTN
Sequence of 5-HT1D receptors (P79250 whole entry): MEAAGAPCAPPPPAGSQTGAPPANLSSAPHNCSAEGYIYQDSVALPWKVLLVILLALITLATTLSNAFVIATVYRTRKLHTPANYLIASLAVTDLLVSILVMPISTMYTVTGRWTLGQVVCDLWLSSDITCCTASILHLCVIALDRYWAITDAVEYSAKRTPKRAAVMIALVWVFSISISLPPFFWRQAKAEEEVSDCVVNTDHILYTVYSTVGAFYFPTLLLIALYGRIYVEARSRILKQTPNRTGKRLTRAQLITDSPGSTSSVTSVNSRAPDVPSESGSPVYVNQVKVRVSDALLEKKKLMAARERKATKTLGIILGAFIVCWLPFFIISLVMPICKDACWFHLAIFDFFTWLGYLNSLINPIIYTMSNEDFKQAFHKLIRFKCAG
Description for 5HT1D receptor: The compounds affinity for the 5HT1D site was determined by the binding procedure of Peroutka et al as reported in European Journal of Pharmacology, Vol. 163 at pages 133-166 (1989). […] Where multiple determinations of the binding affinity have been performed, the average is given followed by the number of determinations in parentheses.

With `CCCN(CCC)C1CCc2cccc(O)c2C1` (stereo not shown) [8-OH DPAT, 8-hydroxy-2-(di-N-propylamino) tetralin], the “neuronal destruction in rodent models of stroke” value (shortened to “neuronal destruction”) in assay [1] is recorded as “inhibited or decreased neuronal destruction”. In addition, in assay [2], the “effect in rodent models for depression” value is listed as “effective in rodent models for depression”. In addition, in assay [3], the analgesic effect entry is on record as “effective as analgesics”. Further, in assay [4], the “antihypertensive effect in rodent models” value is listed as “effective for the treatment of hypertension in rodent models”.

With `CCCN(CCC)C1Cc2c[nH]c3ccc(OC)c(c23)C1.Cl` (stereo not shown) [Bay R 1531], in assay [1], the “neuronal destruction” value was “inhibited or decreased neuronal destruction”.

Regarding `Cl.OCc1cc2c(N3CCN(CCc4ccccc4)CC3)cccc2s1` [Example 7, 4[4(2-phenylethyl)-1-piperazinyl]-benzo[b]thiophene-2-methanol monohydrochloride], the IC50 (as a rule, the concentration that gives 50% inhibition) at 5HT1D receptor is 2.4 nM; at 5HT1A receptor, 0.6 nM. In assay [5], the ED50 (as a rule, the dose at which the effect has come halfway, by size or by number of responders) was 0.61 mg/kg.

In the case of `Cl.NC(=O)c1cc2c(N3CCN(CCc4ccccc4)CC3)cccc2s1` [Example 9, 4-[4-(2-phenylethyl)-1-piperazinyl]-benzo[b]thiophene-2-carboxamide monohydrochloride], the IC50 was determined as 1.6 nM on 5HT1D receptor and 0.5 nM on 5HT1A receptor. In [5], this molecule came in with an ED50 of 0.12 mg/kg. The molecule further had a Kb on 5-HT1D receptors of 10.2 nM.

`OCc1cc2c(N3CCN(CCCc4ccccc4)CC3)cccc2s1` [Example 15, 4-[4-(3,phenylpropyl)-1-piperazinyl]-benzo[b]thiophene-2-methanol monohydrochloride]: the IC50 was 23 nM at 5HT1D receptor (average of multiple determinations where number in parentheses is given, read-out: IC50 (5HT1D Binding Affinity)) and 1.8 nM at 5HT1A receptor (average of multiple determinations where number in parentheses is given, read-out: IC50 (5HT1A Binding Affinity)). The “decrease of fear-potentiated startle” value in [6] (doses of 2.5, 20.0, and 40.0 mg/kg s.c., p<.05 vs vehicle, Fisher PLSD) is listed as “decreased fear-potentiated startle with statistically significant effects”. In addition, the “anxiolytic activity in the fear-potentiated startle test” value in assay [6] (s.c., 15 minutes before test) is given as “significant anxiolytic activity”. Besides, in assay [6] (s.c., Noise-Alone trials), the “baseline startle reflex (muscle relaxant activity)” value is reported as “did not decrease the baseline startle reflex”. In [5], it took a dose of 1.74 mg/kg to reach the 50% effect level (ED50).

With `Cl.NC(=O)c1cc2c(N3CCN(CCc4ccc(Cl)cc4)CC3)cccc2s1` [Example 21, 4-[4-[2-(4-chlorophenyl)ethyl]-1-piperazinyl]-benzo[b]thiophene-2-carboxamide monohydrochloride], the figures for the IC50 on 5HT1D receptor and at 5HT1A receptor were 14 nM and 2 nM, respectively. The molecule further returned an ED50 in assay [5] of 0.05 mg/kg.

Turning to `Cc1ccc(CCN2CCN(c3cccc4sc(C(N)=O)cc34)CC2)cc1` [Example 29, 4-[4-[2-(4-methylphenyl)ethyl]-1-perazinyl]-benzo[b]thiophene-2-carboxamide monohydrochloride], the IC50 at 5HT1D receptor was determined as 3 nM; at 5HT1A receptor, 1 nM. In [5], it took a dose of 0.03 mg/kg to reach the 50% effect level (ED50).

`COCc1cc2c(N3CCN(CCc4ccc(F)cc4)CC3)cccc2s1` [Example 46, 4-[4-(2-(4-fluorophenyl)-ethyl)-1-piperazinyl]benzo [b]thiophene 2-methoxymethyl hydrochloride, 0.2 hydrate]: the IC50 on 5HT1D receptor (read-out: IC50 (5HT1D Binding Affinity), average of multiple determinations where number in parentheses is given) was 17 nM; on 5HT1A receptor (read-out: IC50 (5HT1A Binding Affinity), average of multiple determinations where number in parentheses is given), 4 nM. For the same molecule, the Emax on 5-HT1D receptors (dog, read-out: intrinsic (agonist) activity, saphenous vein preparation) is 5%. The “pA2 (blocking of 5-HT1-like-mediated contraction in canine saphenous vein)” value on 5-HT1D receptors (negative log molar concentration of antagonist producing 2 fold shift in ED50 of 5-HT dose response curves) was found to be 7.98.

Turning to `O=C1CC2(CCCC2)CC(=O)N1CCCCN1CCN(c2ncccn2)CC1` [buspirone], the raphe cell firing result in assay [7] is “inhibit raphe cell firing”.

`O=C(NCCN1CCN(c2cccc3c2OC[C@H](CO)O3)CC1)c1ccc(F)cc1` [flesinoxan]: in assay [4], the “antihypertensive effect in rodent models” value is “effective for the treatment of hypertension in rodent models”.

With `CC1(C)CC(=O)N(CCCCN2CCN(c3ncccn3)CC2)C(=O)C1` [gepirone], in assay [1], the “neuronal destruction” value is listed as “inhibited or decreased neuronal destruction”.

For the molecule `O=C1c2ccccc2S(=O)(=O)N1CCCCN1CCN(c2ncccn2)CC1` [ipsapirone], in assay [1], the “neuronal destruction” value is “inhibited or decreased neuronal destruction”.

Regarding `CNS(=O)(=O)Cc1ccc2[nH]cc(CCN(C)C)c2c1` [sumatriptan], the “termination of acute migraine attacks” value in assay [8] is “terminate acute migraine attacks in early clinical trials”. In addition, the “antimigraine-like effects in animal models” value in assay [9] was “produce antimigraine-like effects in animal models”.

Source of the values: patent publication US5436246A, “Serotonin receptor agents” (priority 1993, dated 1995).
